Structures are written as SMILES.

For one assay, the target named is T1, EGFR (Homo sapiens, UniProt P00533).
T1 construct: GST; made in house; host or cells: Sf9 insect cells (baculovirus)
Kind of assay: Receptor tyrosine kinase inhibition, [γ-33P]-ATP competition FlashPlate assay. As to conditions: Ki determined from IC50, competitive binding mode, 15 µM ATP, Km ATP 1.3 µM; n.a. = not active. It counts as biochemical. The method, then: (§1) The protein kinases were expressed by means of the baculovirus expression system in Sf9 insect cells as human recombinant GST fusion proteins and purified by affinity chromatography using GSH-agarose. The kinase identity was confirmed by mass spectrometry using LC-ESI-MS/MS technique.
The measuring of protein kinase activity was performed in 96-well FlashPlates^TM from Perkin Elmer in a 50 µL reaction volume. The reaction mixture consisted of 20 µL of assay buffer solution, 5 µL of ATP solution in water, 5 µL of used test compound in a 10% dmso solution and, finally, a premixture of each 10 µL of used substrate and enzyme solutions. […] The final kinase concentration has been 10 ng/50 µL for EGFR and 20 ng/50 µL for PDGFR-β. […] The reaction mixtures were incubated at 30 °C for 60 min. The reaction was stopped with 50 µL of a 2% (v/v) solution of phosphoric acid. Then the plates were aspirated and washed twice with 200 µL of water and a 0.9% solution of sodium chloride. The incorporation of ^33 P was determined with a microplate scintillation counter. Ten different inhibitor concentrations were measured in a range of 3 nM to 100 µM. The residual activity (%) and the IC50 values were finally calculated.

The next assay deals with T2, PDGFR-β (Homo sapiens, UniProt P09619).
T2 construct: GST; made in house; host or cells: Sf9 insect cells (baculovirus)
The description is as above. As to conditions: for Ki / Ki values PDGFR-β: Ki determined from IC50, competitive binding mode, 15 µM ATP, Km ATP 0.989 µM, n.a. = not active. It counts as biochemical. The procedure:
as §1
The measuring of protein kinase activity was performed in 96-well FlashPlates^TM from Perkin Elmer in a 50 µL reaction volume. The reaction mixture consisted of 20 µL of assay buffer solution, 5 µL of ATP solution in water, 5 µL of used test compound in a 10% dmso solution and, finally, a premixture of each 10 µL of used substrate and enzyme solutions. The assay buffer solution contained 70 mM of HEPES-NAOH pH 7.5, each 3 mM of magnesium chloride and manganese(II) chloride, 3 µM of sodium orthovanadate, 1.2 mM of DTT, 50 µg/mL of PEG20000 and finally 15 µM of [γ-^33 P]-ATP making approximately 9 × 10^5 cpm per well. The final kinase concentration has been 10 ng/50 µL for EGFR and 20 ng/50 µL for PDGFR-β. The substrate was Poly(Glu,Tyr)4:1 for EGFR and Poly(Ala, Glu, Lys, Tyr)6:2:5.1 for PDFGR-β, both used in a concentration of 125 ng/50 µL. The reaction mixtures were incubated at 30 °C for 60 min. The reaction was stopped with 50 µL of a 2% (v/v) solution of phosphoric acid. Then the plates were aspirated and washed twice with 200 µL of water and a 0.9% solution of sodium chloride. The incorporation of ^33 P was determined with a microplate scintillation counter. Ten different inhibitor concentrations were measured in a range of 3 nM to 100 µM. The residual activity (%) and the IC50 values were finally calculated. From the IC50 values the affinity constants Ki were determined using the equation: IC50 =1/2 [Etotal]+Ki × (1 + [S]/Km) following a competitive inhibitor binding mode[19] (Table 1). The used Km values for ATP have been measured with 1.3 µM for EGFR and with 0.989 µM for PDGFR-β.

Assay [1] relates to DU-145 prostate cancer cell line. Kind of assay: Cellular growth inhibition assay (NCI, SRB staining). It counts as cell-based. Conditions: Homo sapiens; DU-145, 10 µM, 48 h; read-out: Compound growth inhibition. The method, then:
(§2) Cells were inoculated into 96 well microtiter plates in […] at plate densities ranging from 5000 to 40.000 cells per well depending from the individual cell doubling time. Then the cell- containing plates were incubated at 37 °C under an air atmosphere containing 5% of carbon dioxide and with a relative humidity for 24 h. After that time two plates of each cell line were fixed in situ with TCA as control before drug addition. Then the drug containing dmso stock solutions were used and mixed with the cell culture medium containing […] of gentamicin. Aliquots of […] of the respective dilution were added to the preincubated plates reaching a final drug concentration of 10 µM. The plates were incubated again under the preincubation conditions as described for 48 h. Then cells were fixed under addition of 50 ml of a cold 50% solution of TCA reaching a final concentration of 10% TCA. Incubation continued for 60 min at 4 °C. The supernatant was discarded and the plates were washed with water for five times and dried at air. Then a sulforhodamine (SRB) solution (0.4%) in acetic acid (1%) was added to each well and plates were incubated again for 10 min. The unbound dye was removed by washing for five times with an acetic acid solution (1%) and the plates were dried at air. The bound stain was solubilised with a […] solution of trizma base and the absorbance was measured with a plate reader at a wavelength of 515 nm. The growth inhibition measured as lowered net protein increase after SRB staining was determined in relation to the untreated control cells (Table 2).
(§3) In first screening studies carried out with an initial concentration of 10 µM by the National Cancer Institute of Health (NCI) the growth inhibition of respective non-small cell lung cancer (NSCLC) cell lines and of prostate cancer cell lines was determined.

Assay [2] relates to EKV X non-small cell lung cancer cell line. The description is as above. As to conditions: Homo sapiens, EKVX, 48 h, read-out: Compound growth inhibition. The format is cell-based. The procedure: as §2, §3
Assay [3] has as its system NCI-H23 non-small cell lung cancer cell line. The assay is described as above. It counts as cell-based. Conditions: Homo sapiens; NCI-H23, 10 µM, 48 h; read-out: Compound growth inhibition. The method, then: as §2, §3
The subject of assay [4] is NCI-H322M non-small cell lung cancer cell line. Described as above. It counts as cell-based. As to conditions: Homo sapiens, 48 h, read-out: Compound growth inhibition. The method, then:
as §2, §3

For assay [5], the system named is PC-3 prostate cancer cell line. The assay is described as above. The format is cell-based. As to conditions: Homo sapiens; PC-3, 10 µM, 48 h; read-out: Compound growth inhibition. The procedure:
as §2, §3

Another assay concerns NSCLC cell lines. Kind of assay: Cellular growth inhibition assay (NCI, SRB staining), span over the cell lines. Conditions: Homo sapiens, span over EKV X, NCI-H23, NCI-H322M, read-out: growth inhibition rates in the NSCLC cell lines. The format is cell-based. The procedure: as §2, §3
In general terms: In SRB staining, fixed cells bind dye roughly in proportion to their protein.

For assay [6], the system named is prostate cancer cell lines. The assay is described as above. The format is cell-based. Conditions: Homo sapiens; span over PC-3 and DU-145, 10 µM; read-out: growth inhibition rates in the prostate cancer cell lines. The method, then:
as §2, §3

For assay [7], the system named is NCI-H23 non-small cell lung cancer cell line. More on the design: method as in PMID 19179890, PMID 16926630. Conditions: NCI-H23, reported for comparison; cited from earlier work.
In assay [8] the test system is PC-3 prostate cancer cell line. Also on record: method as in PMID 19179890, PMID 16926630. Conditions: PC-3, reported for comparison; cited from earlier work.
For assay [9], the system named is DU-145 prostate cancer cell line. Also on record: method as in PMID 19179890, PMID 16926630. As to conditions: DU-145, reported for comparison; cited from earlier work.

T2 sequence (P09619 33-1106): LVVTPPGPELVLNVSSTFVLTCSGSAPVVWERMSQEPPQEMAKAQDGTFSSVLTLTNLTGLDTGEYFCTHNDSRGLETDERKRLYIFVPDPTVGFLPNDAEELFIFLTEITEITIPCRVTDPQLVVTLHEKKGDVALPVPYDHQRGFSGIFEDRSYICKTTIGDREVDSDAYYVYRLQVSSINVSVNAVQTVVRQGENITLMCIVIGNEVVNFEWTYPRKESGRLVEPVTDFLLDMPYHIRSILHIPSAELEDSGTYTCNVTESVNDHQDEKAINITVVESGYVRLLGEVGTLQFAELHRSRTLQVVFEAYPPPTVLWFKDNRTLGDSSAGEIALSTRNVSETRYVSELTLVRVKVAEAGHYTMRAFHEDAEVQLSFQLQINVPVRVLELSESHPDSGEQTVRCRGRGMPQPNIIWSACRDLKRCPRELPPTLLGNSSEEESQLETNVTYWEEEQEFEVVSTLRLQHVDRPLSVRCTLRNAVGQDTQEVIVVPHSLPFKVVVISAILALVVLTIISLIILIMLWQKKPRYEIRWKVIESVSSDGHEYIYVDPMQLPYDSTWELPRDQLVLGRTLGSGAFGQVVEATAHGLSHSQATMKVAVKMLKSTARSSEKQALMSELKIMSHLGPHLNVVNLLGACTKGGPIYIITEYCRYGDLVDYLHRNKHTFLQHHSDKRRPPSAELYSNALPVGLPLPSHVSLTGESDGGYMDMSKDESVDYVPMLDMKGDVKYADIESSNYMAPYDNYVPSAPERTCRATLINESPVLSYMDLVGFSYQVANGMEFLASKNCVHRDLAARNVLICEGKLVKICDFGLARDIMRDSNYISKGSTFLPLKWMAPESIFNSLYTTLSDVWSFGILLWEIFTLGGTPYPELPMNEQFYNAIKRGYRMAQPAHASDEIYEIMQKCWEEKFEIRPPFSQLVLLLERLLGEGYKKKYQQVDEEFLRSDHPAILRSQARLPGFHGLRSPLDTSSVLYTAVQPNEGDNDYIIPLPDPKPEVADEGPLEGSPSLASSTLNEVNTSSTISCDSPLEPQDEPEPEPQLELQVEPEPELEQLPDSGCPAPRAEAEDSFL
T1 sequence (P00533 25-1210): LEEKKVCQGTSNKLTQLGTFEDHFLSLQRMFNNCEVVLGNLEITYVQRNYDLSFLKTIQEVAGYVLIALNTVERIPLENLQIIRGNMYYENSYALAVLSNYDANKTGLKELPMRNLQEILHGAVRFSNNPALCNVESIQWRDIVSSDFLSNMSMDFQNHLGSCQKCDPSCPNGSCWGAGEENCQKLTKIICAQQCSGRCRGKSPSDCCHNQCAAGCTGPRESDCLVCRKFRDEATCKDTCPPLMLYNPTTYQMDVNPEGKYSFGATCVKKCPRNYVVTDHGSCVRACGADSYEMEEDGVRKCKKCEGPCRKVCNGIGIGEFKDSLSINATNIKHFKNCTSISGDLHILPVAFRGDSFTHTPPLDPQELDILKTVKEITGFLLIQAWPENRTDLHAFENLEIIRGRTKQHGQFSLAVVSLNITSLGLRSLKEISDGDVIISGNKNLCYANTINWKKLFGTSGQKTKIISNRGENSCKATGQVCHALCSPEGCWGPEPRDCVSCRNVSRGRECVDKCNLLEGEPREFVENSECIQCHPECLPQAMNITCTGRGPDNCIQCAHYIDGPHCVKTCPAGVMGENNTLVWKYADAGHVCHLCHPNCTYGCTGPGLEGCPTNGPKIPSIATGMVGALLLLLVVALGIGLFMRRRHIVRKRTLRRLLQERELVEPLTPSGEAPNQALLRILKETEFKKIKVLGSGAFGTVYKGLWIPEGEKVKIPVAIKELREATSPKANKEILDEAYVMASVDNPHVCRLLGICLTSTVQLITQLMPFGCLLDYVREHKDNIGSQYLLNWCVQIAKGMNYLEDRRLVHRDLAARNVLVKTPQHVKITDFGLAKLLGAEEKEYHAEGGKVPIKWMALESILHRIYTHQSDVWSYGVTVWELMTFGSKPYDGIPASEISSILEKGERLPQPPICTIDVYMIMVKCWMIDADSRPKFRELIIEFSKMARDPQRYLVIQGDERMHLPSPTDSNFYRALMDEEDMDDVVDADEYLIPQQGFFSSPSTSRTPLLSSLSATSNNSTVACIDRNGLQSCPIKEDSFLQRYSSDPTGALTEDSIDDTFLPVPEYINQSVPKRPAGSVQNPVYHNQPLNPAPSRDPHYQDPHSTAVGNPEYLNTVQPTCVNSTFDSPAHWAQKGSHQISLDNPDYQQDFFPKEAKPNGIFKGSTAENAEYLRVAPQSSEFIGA

One may read the Ki as the equilibrium dissociation constant of an inhibitor or competing ligand from its target. Regarding `CCOc1ccc(Nc2nc(N)nc3[nH]c4ccc(O)cc4c23)cc1` [Compound 5d, 2-Amino-4-((4-ethoxyphenyl)amino)-9H-pyrimido[4,5-b]indol-6-ol], the Ki worked out at 935 ± 84 nM on EGFR and 1910 ± 150 nM on PDGFR-β.

Consider `C#Cc1cccc(Nc2nc(N)nc3[nH]c4ccc(O)cc4c23)c1` [Compound 5c, 2-Amino-4-((3-ethinylphenyl)amino)-9H-pyrimido[4,5-b]indol-6-ol], for which the inhibition constant Ki worked out at 149 ± 66 nM on EGFR and 3530 ± 200 nM on PDGFR-β.

A word on the inhibition: it is the change of the read-out against control, counted positive when it falls. With `COc1ccc(COc2ccc(Nc3nc(N)nc4[nH]c5ccc(O)cc5c34)cc2)cc1` [Compound 5i], the inhibitory constant (Ki) on EGFR was 413 ± 111 nM; at PDGFR-β it was 72 ± 15 nM. Besides, the inhibition at 10 µM was 15% in assay [1]; 29% in assay [2]; 9% in [3]; 1% in assay [4]; 25% in assay [5]; 1 to 29% in the assay with NSCLC cell lines. Further, the inhibition at 10 µM in assay [6] lay in the range of 15 to 25%.

In turn, `CCOc1cccc(Nc2nc(N)nc3[nH]c4ccc(O)cc4c23)c1` [Compound 5a, 2-Amino-4-((3-ethoxyphenyl)amino)-9H-pyrimido[4,5-b]indol-6-ol] had an inhibitory constant (Ki) at EGFR of 181 ± 14 nM. On PDGFR-β, the “Ki values PDGFR-β” value was “not active”. Besides, the inhibition at 10 µM in assay [1] is 51%; in assay [2] it was 71%; in assay [3] it was 32%; in [4], 35%; in assay [5] it was 25%; in the assay with NSCLC cell lines it was 32 to 71%.

With `C#Cc1cccc(Nc2ncnc3cc(OCCOC)c(OCCOC)cc23)c1` [erlotinib], the growth inhibition rate in assay [7] is 20%; in [8], 40%; in assay [9], 45%.

On to `COc1ccc(COc2ccc(Nc3nc(N)nc4[nH]c5ccc(O)cc5c34)cc2Cl)cc1` [Compound 5l, 2-Amino-4-((3-chloro-4-((4-methoxybenzyl)oxy)phenyl)amino)-9H-pyrimido[4,5-b]indol-6-ol], for which the Ki at EGFR came to 103 ± 37 nM; at PDGFR-β it was 213 ± 35 nM.

For `Nc1nc(Nc2ccc(Cl)cc2)c2c(n1)[nH]c1ccc(O)cc12` [Compound 5g, 2-Amino-4-((4-chlorophenyl)amino)-9H-pyrimido[4,5-b]indol-6-ol], the affinity at EGFR corresponds to a Ki of 686 ± 82 nM. The “Ki values PDGFR-β” value on PDGFR-β was “not active”.

Turning to `CC(C)Oc1ccc(Nc2nc(N)nc3[nH]c4ccc(O)cc4c23)cc1` [Compound 5e, 2-Amino-4-((4-isopropoxyphenyl)amino)-9H-pyrimido[4,5-b]indol-6-ol], the Ki came out at 574 ± 110 nM on EGFR and 1940 ± 218 nM on PDGFR-β.

Take `Nc1nc(Nc2ccc(Br)cc2)c2c(n1)[nH]c1ccc(O)cc12` [Compound 5h, 2-Amino-4-((4-bromophenyl)amino)-9H-pyrimido[4,5-b]indol-6-ol]: the inhibition constant Ki at EGFR is 475 ± 143 nM; on PDGFR-β, 3230 ± 195 nM.

`Nc1nc(Nc2ccc(OCc3cccc(F)c3)cc2)c2c(n1)[nH]c1ccc(O)cc12` [Compound 5k]: the values for the inhibition constant (Ki) on EGFR and at PDGFR-β were 170 ± 85 nM and 81 ± 10 nM, respectively. For the same molecule, the inhibition at 10 µM in assay [1] was 90%; in assay [2], 90%; in assay [3], 93%; in assay [4], 96%; in assay [5] it was 95%.

Take `Oc1ccc2[nH]c3ncnc(Nc4ccc(OCc5cccc(F)c5)cc4)c3c2c1` [Compound 5m]: the values for the inhibition constant (Ki) at EGFR and on PDGFR-β were 189 ± 27 nM and 3660 ± 210 nM, respectively. Further, the “decrease in the PDGFR-β affinity by a factor” value at PDGFR-β (compared to the 2-amino compound 5k) is “fifty”.

Take `COc1cccc(COc2ccc(Nc3nc(N)nc4[nH]c5ccc(O)cc5c34)cc2)c1` [Compound 5j]: the inhibition constant Ki at EGFR was 132 ± 99 nM; at PDGFR-β, 209 ± 15 nM.

In turn, `C#Cc1ccc(Nc2nc(N)nc3[nH]c4ccc(O)cc4c23)cc1` [Compound 5f, 2-Amino-4-((4-ethinylphenyl)amino)-9H-pyrimido[4,5-b]indol-6-ol] came in with an inhibitory constant (Ki) on EGFR of 421 ± 66 nM. In addition, the “Ki values PDGFR-β” value at PDGFR-β is recorded as “not active”.

For the molecule `CC(C)Oc1cccc(Nc2nc(N)nc3[nH]c4ccc(O)cc4c23)c1` [Compound 5b, 2-Amino-4-((3-isopropoxyphenyl)amino)-9H-pyrimido[4,5-b]indol-6-ol], the “Ki values EGFR” value on EGFR was “lost”. This molecule registered an inhibition constant Ki at PDGFR-β of 2750 ± 184 nM.

Values taken from article PMC6009873, “Discovery of novel dual inhibitors of receptor tyrosine kinases EGFR and PDGFR-β related to anticancer drug resistance” (Journal of Enzyme Inhibition and Medicinal Chemistry, 2017).
